According to patent publication US10851105B2, “Bicyclic heterocycles as FGFR4 inhibitors” (Incyte Corporation, priority 2014, dated 2020):
pIC50: −log10 of the molar value. Like-named read-outs stand apart in the source and are kept apart here.

What was measured:
FGFR4 = FGFR4 (Homo sapiens (Human), UniProt P22455); assay: FGFR Enzymatic Assay (FRET peptide phosphorylation), FGFR4; settings: for IC50: FGFR4 IC50 (nM); for pIC50: read-out: FGFR4 IC50
Description: (§1) The inhibitor potency of the exemplified compounds was measured in an enzyme assay that measures peptide phosphorylation using FRET measurements to detect product formation. Inhibitors were serially diluted in DMSO and a volume of 0.5 μL was transferred to the wells of a 384-well plate. For FGFR3, a 10 μL volume of FGFR3 enzyme (Millipore) diluted in assay buffer (50 mM HEPES, 10 mM MgCl2, 1 mM EGTA, 0.01% Tween-20, 5 mM DTT, pH 7.5) was added to the plate and pre-incubated for a time between 5-10 minutes and up to 4 hours. Appropriate controls (enzyme blank and enzyme with no inhibitor) were included on the plate. […] The plate was incubated at 25° C. for 1 hr. […] The plate was allowed to equilibrate for ˜1 hr before scanning the wells on a PheraStar plate reader (BMG Labtech).
(§2) The enzymes were purchased from Millipore or Invitrogen.
(§3) GraphPad prism3 was used to analyze the data. The IC50 values were derived by fitting the data to the equation for a sigmoidal dose-response with a variable slope. Y=Bottom+(Top-Bottom)/(1+10^((Log IC50−X)*HillSlope)) where X is the logarithm of concentration and Y is the response.

FGFR2 = FGFR2 (Homo sapiens (Human), UniProt P21802); assay: FGFR Enzymatic Assay (FRET peptide phosphorylation), FGFR2; settings: for FGFR2/FGFR4: IC50 ratio
Description: as §1, §2, §3

FGFR1 = FGFR1 (Homo sapiens (Human), UniProt P11362); assay: FGFR Enzymatic Assay (FRET peptide phosphorylation), FGFR1; settings: for FGFR1/FGFR4: IC50 ratio; for pIC50: read-out: FGFR1 IC50; for IC50: FGFR1 IC50 (nM)
Description: as §1, §2, §3

FGFR3 = FGFR3 (Homo sapiens (Human), UniProt P22607); assay: FGFR Enzymatic Assay (FRET peptide phosphorylation), FGFR3; settings: for FGFR3/FGFR4: IC50 ratio
Description: Inhibitors were serially diluted in DMSO and a volume of 0.5 μL was transferred to the wells of a 384-well plate. For FGFR3, a 10 μL volume of FGFR3 enzyme (Millipore) diluted in assay buffer (50 mM HEPES, 10 mM MgCl2, 1 mM EGTA, 0.01% Tween-20, 5 mM DTT, pH 7.5) was added to the plate and pre-incubated for a time between 5-10 minutes and up to 4 hours. Appropriate controls (enzyme blank and enzyme with no inhibitor) were included on the plate. […] The plate was incubated at 25° C. for 1 hr. […] The plate was allowed to equilibrate for ˜1 hr before scanning the wells on a PheraStar plate reader (BMG Labtech).
as §3

[1] = pre-incubated for 5 to 10 minutes
[2] = read-out: FGFR2 IC50, pre-incubated for 5 to 10 minutes
[3] = read-out: FGFR2 IC50, pre-incubated for 4 hours
[4] = read-out: FGFR3 IC50, pre-incubated for 5 to 10 minutes
[5] = read-out: FGFR3 IC50, pre-incubated for 4 hours

Sequence of FGFR2 (P21802 22-821): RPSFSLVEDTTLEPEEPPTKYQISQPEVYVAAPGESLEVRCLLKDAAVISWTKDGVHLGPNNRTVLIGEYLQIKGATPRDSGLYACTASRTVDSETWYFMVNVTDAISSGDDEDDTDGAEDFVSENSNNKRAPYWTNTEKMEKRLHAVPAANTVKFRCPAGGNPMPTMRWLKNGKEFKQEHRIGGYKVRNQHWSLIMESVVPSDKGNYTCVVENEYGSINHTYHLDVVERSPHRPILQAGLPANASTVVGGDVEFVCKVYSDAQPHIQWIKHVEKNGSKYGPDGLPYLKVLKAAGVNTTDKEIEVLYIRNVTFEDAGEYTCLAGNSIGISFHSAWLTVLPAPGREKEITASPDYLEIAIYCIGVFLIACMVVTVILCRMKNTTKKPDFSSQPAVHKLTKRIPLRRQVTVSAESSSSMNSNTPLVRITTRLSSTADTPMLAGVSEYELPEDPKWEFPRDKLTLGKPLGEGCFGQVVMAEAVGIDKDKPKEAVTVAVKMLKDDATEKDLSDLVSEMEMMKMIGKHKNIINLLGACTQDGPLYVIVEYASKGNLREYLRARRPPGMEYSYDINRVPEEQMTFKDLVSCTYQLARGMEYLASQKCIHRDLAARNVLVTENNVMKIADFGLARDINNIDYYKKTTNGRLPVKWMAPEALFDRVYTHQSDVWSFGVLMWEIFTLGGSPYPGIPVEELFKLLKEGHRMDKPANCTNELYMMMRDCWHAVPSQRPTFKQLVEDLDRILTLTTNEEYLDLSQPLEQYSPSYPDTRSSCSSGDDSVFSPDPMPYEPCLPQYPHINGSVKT
Sequence of FGFR1 (P11362 22-822): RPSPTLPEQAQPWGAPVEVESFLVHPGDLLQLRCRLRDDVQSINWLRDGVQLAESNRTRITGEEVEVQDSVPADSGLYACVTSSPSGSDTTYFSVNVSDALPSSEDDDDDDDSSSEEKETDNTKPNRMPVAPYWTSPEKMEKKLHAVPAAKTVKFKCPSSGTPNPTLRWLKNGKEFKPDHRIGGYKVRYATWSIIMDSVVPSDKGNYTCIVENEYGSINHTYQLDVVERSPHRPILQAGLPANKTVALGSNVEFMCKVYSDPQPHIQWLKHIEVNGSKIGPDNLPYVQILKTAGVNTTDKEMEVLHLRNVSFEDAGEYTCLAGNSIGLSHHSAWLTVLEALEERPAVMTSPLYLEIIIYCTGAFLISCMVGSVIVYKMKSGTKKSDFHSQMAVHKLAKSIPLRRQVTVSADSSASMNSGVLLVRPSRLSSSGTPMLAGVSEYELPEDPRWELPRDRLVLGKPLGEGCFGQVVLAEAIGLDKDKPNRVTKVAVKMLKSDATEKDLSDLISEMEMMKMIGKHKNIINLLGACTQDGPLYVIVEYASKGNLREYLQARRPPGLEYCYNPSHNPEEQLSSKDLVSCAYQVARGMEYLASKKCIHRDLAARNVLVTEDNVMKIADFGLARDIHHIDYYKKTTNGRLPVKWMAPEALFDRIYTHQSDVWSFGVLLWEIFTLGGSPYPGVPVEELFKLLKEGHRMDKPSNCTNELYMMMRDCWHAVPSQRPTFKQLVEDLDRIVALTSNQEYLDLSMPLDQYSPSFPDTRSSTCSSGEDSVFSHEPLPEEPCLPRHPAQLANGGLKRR
Sequence of FGFR4 (P22455 22-802): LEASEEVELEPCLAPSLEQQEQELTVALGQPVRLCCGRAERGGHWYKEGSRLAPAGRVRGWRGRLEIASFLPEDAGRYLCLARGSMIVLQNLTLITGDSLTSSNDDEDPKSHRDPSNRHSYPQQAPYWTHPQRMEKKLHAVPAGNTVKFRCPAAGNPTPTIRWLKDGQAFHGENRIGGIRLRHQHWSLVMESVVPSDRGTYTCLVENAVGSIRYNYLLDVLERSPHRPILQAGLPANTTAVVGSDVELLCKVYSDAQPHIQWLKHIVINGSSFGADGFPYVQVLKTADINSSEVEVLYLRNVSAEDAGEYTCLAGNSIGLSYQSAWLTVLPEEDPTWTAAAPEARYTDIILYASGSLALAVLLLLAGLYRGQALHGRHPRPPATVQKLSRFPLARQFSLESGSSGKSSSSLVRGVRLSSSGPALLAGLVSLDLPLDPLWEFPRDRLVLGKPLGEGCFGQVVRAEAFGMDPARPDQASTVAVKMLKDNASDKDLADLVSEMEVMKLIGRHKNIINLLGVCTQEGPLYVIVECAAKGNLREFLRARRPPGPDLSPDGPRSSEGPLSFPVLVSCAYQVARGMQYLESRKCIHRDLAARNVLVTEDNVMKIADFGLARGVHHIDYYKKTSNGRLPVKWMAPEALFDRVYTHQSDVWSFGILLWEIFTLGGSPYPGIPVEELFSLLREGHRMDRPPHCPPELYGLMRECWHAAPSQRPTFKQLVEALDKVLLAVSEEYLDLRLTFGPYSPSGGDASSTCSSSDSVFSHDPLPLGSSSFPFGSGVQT
Sequence of FGFR3 (P22607 23-806): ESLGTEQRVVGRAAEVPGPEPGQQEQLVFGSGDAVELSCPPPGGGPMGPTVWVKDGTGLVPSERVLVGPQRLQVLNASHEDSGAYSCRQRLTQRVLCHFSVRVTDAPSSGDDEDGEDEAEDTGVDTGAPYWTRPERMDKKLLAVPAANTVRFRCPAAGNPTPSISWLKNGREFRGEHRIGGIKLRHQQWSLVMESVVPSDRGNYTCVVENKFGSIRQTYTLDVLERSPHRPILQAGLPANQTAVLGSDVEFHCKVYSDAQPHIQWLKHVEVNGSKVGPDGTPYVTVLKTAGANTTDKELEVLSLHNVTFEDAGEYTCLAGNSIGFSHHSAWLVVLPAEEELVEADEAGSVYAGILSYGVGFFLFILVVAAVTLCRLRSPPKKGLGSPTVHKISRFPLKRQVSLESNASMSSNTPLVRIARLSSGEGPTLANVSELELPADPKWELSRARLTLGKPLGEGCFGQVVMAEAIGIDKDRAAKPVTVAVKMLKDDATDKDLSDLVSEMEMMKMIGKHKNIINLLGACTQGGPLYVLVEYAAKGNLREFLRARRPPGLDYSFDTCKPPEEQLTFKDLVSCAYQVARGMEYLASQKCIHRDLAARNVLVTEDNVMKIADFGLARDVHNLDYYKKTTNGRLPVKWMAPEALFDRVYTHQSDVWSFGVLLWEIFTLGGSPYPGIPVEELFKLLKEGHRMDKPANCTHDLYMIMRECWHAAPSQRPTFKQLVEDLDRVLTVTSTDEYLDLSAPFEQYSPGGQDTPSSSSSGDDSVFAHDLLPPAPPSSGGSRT

SMILES	IC50 (FGFR4; [1])	IC50 (FGFR4; pre-incubated for 4 hours)	FGFR2/FGFR4 (FGFR2; [1])	FGFR2/FGFR4 (FGFR2; pre-incubated for 4 hours)	pIC50 (FGFR2; [2])	pIC50 (FGFR2; [3])	FGFR1/FGFR4 (FGFR1; [1])	FGFR1/FGFR4 (FGFR1; pre-incubated for 4 hours)	pIC50 (FGFR1; [1])	pIC50 (FGFR1; pre-incubated for 4 hours)	FGFR3/FGFR4 (FGFR3; [1])	FGFR3/FGFR4 (FGFR3; pre-incubated for 4 hours)	pIC50 (FGFR3; [4])	pIC50 (FGFR3; [5])	pIC50 (FGFR4; pre-incubated for 4 hours)	pIC50 (FGFR2)	IC50 (FGFR1; [1])	IC50 (FGFR1; pre-incubated for 4 hours)	pIC50 (FGFR3)	pIC50 (FGFR4; [1])
C=CC(=O)NC1CCCCC1Nc1cc2c(cn1)CN(c1c(F)c(OC)cc(OC)c1F)C(=O)C21CC1 (racemic) [Example 3, N-(2-(2′-(2,6-difluoro-3,5-dimethoxyphenyl)-3′-oxo-2′,3′-dihydro-1′H-spiro [cyclopropane-1,4′-[2,7]naphthyridine]-6′-ylamino)cyclohexyl)acrylamide]	30 to 200 nM	< 10 nM	>5	>25	< 6.70		>5	>25			>10	>100	< 6.70			< 6.70	> 200 nM	> 200 nM	< 6.70	
C=CC(=O)Nc1ccccc1Nc1cc2c(cn1)CN(c1c(F)c(OC)cc(OC)c1F)C(=O)C21CCCC1 [Example 7, N-(2-(2′-(2,6-difluoro-3,5-dimethoxyphenyl)-3′-oxo-2′,3′-dihydro-1′H-spiro [cyclopentane-1,4′-[2,7]naphthyridine]-6′-ylamino)phenyl)acrylamide]			>10	>100	< 6.70		>10	>100			>10	>100	< 6.70	< 6.70	> 8.00	6.70 to 7.52	30 to 200 nM	30 to 200 nM		> 8.00
C=CC(=O)NC1COCC1Nc1cc2c(cn1)CN(c1c(F)c(OC)cc(OC)c1F)C(=O)C21CC1 (racemic) [Example 4, N-(4-(2′-(2,6-difluoro-3,5-dimethoxyphenyl)-3′-oxo-2′,3′-dihydro-1′H-spiro[cyclopropane-1,4′-[2,7]naphthyridine]-6′-ylamino)tetrahydrofuran-3-yl)acrylamide]	< 10 nM	< 10 nM	>10	>100	< 6.70		>10	>100			>10	>100	< 6.70			< 6.70	> 200 nM	30 to 200 nM	< 6.70	
C=CC(=O)Nc1cccc(C)c1Nc1cc2c(cn1)CN(c1c(F)c(OC)cc(OC)c1F)C(=O)C21CC1 [Example 5, N-(2-(2′-(2,6-difluoro-3,5-dimethoxyphenyl)-3′-oxo-2′,3′-dihydro-1′H-spiro [cyclopropane-1,4′-[2,7]naphthyridine]-6′-ylamino)-3-methylphenyl)acrylamide]			>10	>100	< 6.70	< 6.70	>10	>100	< 6.70	< 6.70	>10	>100	< 6.70	< 6.70	> 8.00					> 8.00
C=CC(=O)Nc1ccccc1Nc1cc2c(cn1)CN(c1c(F)c(OC)cc(OC)c1F)C(=O)C21CCOCC1 [Example 8, N-(2-(2-(2,6-difluoro-3,5-dimethoxyphenyl)-3-oxo-2,2′,3,3′,5′,6′-hexahydro-1H-spiro[[2,7]naphthyridine-4,4′-pyran]-6-ylamino)phenyl)acrylamide]			>10	>100	< 6.70	< 6.70	>10	>100	< 6.70	< 6.70	>10	>100	< 6.70	< 6.70	> 8.00					< 6.70
C=CC(=O)Nc1ccccc1Nc1cc2c(cn1)CN(c1c(F)c(OC)cc(OC)c1F)C(=O)C2(C)C [Example 6, N-(2-(7-(2,6-difluoro-3,5-dimethoxyphenyl)-5,5-dimethyl-6-oxo-5,6,7,8-tetrahydro-2,7-naphthyridin-3-ylamino)phenyl)acrylamide]	10 to 30 nM		>10	>100	< 6.70	< 6.70	>10	>100	< 6.70	< 6.70	>10	>100	< 6.70	< 6.70	> 8.00					

Now from value to compound:

IC50 (FGFR4; [1])	IC50 (FGFR4; pre-incubated for 4 hours)	FGFR2/FGFR4 (FGFR2; [1])	FGFR2/FGFR4 (FGFR2; pre-incubated for 4 hours)	pIC50 (FGFR2; [2])	pIC50 (FGFR2; [3])	FGFR1/FGFR4 (FGFR1; [1])	FGFR1/FGFR4 (FGFR1; pre-incubated for 4 hours)	pIC50 (FGFR1; [1])	pIC50 (FGFR1; pre-incubated for 4 hours)	FGFR3/FGFR4 (FGFR3; [1])	FGFR3/FGFR4 (FGFR3; pre-incubated for 4 hours)	pIC50 (FGFR3; [4])	pIC50 (FGFR3; [5])	pIC50 (FGFR4; pre-incubated for 4 hours)	pIC50 (FGFR2)	IC50 (FGFR1; [1])	IC50 (FGFR1; pre-incubated for 4 hours)	pIC50 (FGFR3)	pIC50 (FGFR4; [1])	SMILES
30 to 200 nM	10 to 30 nM	>10	>100	< 6.70	< 6.70	>10	>100	< 6.70	< 6.70	>10	>100	< 6.70	< 6.70							C=CC(=O)N[C@H]1CCC[C@H]1Oc1ncc2c(n1)C1(CC1)C(=O)N(c1c(F)c(OC)cc(OC)c1F)C2 [Example 12, N-((1 S,2R)-2-(6′-(2,6-difluoro-3,5-dimethoxyphenyl)-7′-oxo-6′,7′-dihydro-5′H-spiro[cyclopropane-1,8′-pyrido[4,3-d]pyrimidine]-2′-yloxy)cyclopentyl)acrylamide]
10 to 30 nM		>2	>5	6.70 to 7.52		>5	>10			>5	>10	< 6.70		> 8.00	6.70 to 7.52	30 to 200 nM	30 to 200 nM	6.70 to 7.52		C=CC(=O)N(C)c1cc2c(cn1)CN(c1c(F)c(OC)cc(OC)c1F)C(=O)C21CC1 [Example 2, N-(2′-(2,6-difluoro-3,5-dimethoxyphenyl)-3′-oxo-2′,3′-dihydro-1′H-spiro [cyclopropane-1,4′-[2,7]naphthyridine]-6′-yl)-N-methylacrylamide]
10 to 30 nM		>10	>100	< 6.70	< 6.70	>10	>100	< 6.70	< 6.70	>10	>100	< 6.70	< 6.70	> 8.00						C=CC(=O)Nc1ccccc1Nc1cc2c(cn1)CN(c1c(F)c(OC)cc(OC)c1F)C(=O)C21CCOC1 (stereo not drawn) [Example 9, N-(2-(2′-(2,6-difluoro-3,5-dimethoxyphenyl)-3′-oxo-2′,3′,4,5-tetrahydro-1′H,2H-spiro[furan-3,4′-[2,7]naphthyridine]-6′-ylamino)phenyl)acrylamide]
		>10	>100	< 6.70	< 6.70	>10	>100	< 6.70		>10	>100	6.70 to 7.52		> 8.00			30 to 200 nM	6.70 to 7.52	> 8.00	C=CC(=O)Nc1ccc(N2CCOCC2)cc1Nc1cc2c(cn1)CN(c1c(F)c(OC)cc(OC)c1F)C(=O)C21CC1 [Example 10, N-(2-{[2′-(2,6-difluoro-3,5-dimethoxyphenyl)-3′-oxo-2′,3′-dihydro-1′H-spiro [cyclopropane-1,4′-[2,7]naphthyridin]-6′-yl]amino}-4-morpholin-4-ylphenyl)acrylamide]
		>10	>25	< 6.70		>10	>25	< 6.70		>10	>100	< 6.70	< 6.70	> 8.00	6.70 to 7.52		30 to 200 nM		> 8.00	C=CC(=O)Nc1ccc(N2CCN(C)CC2)cc1Nc1cc2c(cn1)CN(c1c(F)c(OC)cc(OC)c1F)C(=O)C21CC1 [Example 11, N-(2-(2′-(2,6-difluoro-3,5-dimethoxyphenyl)-3′-oxo-2′,3′-dihydro-1′H-spiro [cyclopropane-1,4′-[2,7]naphthyridine]-6′-ylamino)-4-(4-methylpiperazin-1-yl)phenyl)acrylamide]
		>10	>100	6.70 to 7.52		>10	>100			>10	>100	6.70 to 7.52		> 8.00	6.70 to 7.52	30 to 200 nM	30 to 200 nM	6.70 to 7.52	> 8.00	C=CC(=O)Nc1ccccc1Nc1cc2c(cn1)CN(c1c(F)c(OC)cc(OC)c1F)C(=O)C21CC1 [Example 1, N-(2-(2′-(2,6-difluoro-3,5-dimethoxyphenyl)-3′-oxo-2′,3′-dihydro-1H-spiro[cyclopropane-1,4′-[2,7]naphthyridine]-6′-ylamino)phenyl)acrylamide]
